The values that follow come from patent US11059860B2, “Biocidal peptide and preparation based thereon” (“VERTA RESEARCH-PRODUCTION COMPANY” LTD, priority 2017, dated 2021).

Series [1] concerns type 2 herpes simplex virus, strain G (ATCC VR-734, USA). Put plainly: Protective activity in lethal herpes infection caused in mice by vaginal infection. Format: in vivo.
Series [2] deals with red blood cells. Format: cell-based. The protocol: The mixture was then diluted with a phosphate (PBS) buffer (0.015 M Na2HPO4, 0.15 M NaCl, pH 7.4). Samples of peptides in specific concentrations in PBS were placed in wells of a 96-well plate, and a red cell suspension in PBS was added to the samples. The red cell concentration was 1%. PBS was used as the negative control (no hemolysis). The positive control (100% hemolysis) −0.1% triton X-100 in PBS. The plates were incubated for three hours at 37° C. under 5% CO2 and centrifuged. The supernatant was transferred to a clean plate. The intensity of the hemoglobin release from the destroyed red blood cells was determined on a tablet spectrophotometer “Victor-2” (Finland) at λ-450 nm. […] All measurements were made thrice.

For series [3], the system named is spleen cells. Put plainly: Spontaneous proliferation of spleen cells (3H-thymidin capture). Format: cell-based, murine. The conditions noted are these: for spontaneous proliferation of spleen cells (captured 3H-thymidin): 72 hrs.
Series [4] relates to spleen cells stimulated with LPS. Format: cell-based, murine.
Series [5] has as its system thymus cells. Put plainly: Spontaneous proliferation of thymus cells (3H-thymidin capture). Format: cell-based, murine. To be noted: 72 hrs.
For series [6], the system named is RAW 264.7 macrophage line cells. Put plainly: NO production by RAW 264.7 macrophage line cells stimulated with LPS (Greiss test). Format: cell-based. The protocol:
Upon completion of incubation, the culture medium in all wells of the plate was replaced with 0.25 ml of fresh medium. […] Polymixin B (Calbiochem) (PMB) in the same concentrations was used as the positive control of the inhibition of the LPS effect. The prepared mixture was then added at 0.25 ml increments to the wells of the culture plate at least in two parallel experiments. A mixture of LPS and the culture medium was added to the control wells. The cells were cultivated for 24 hrs. in a CO2 incubator. NO production was measured based on the total nitrite level in the culture medium in the Greiss test by using a commercial reagent (Sigma) according to the manufacturer's specifications.

The mark [7] stands for this setting: mice, n = 15, applied once a day on days 1-5 post infection, followed 18 days.
[8] abbreviates: stimulated with 0.04 ml of LPS, peptide 0.4 μg/ml.
Where [9] appears, read: stimulated with 0.04 ml of LPS, peptide 2 μg/ml.
[10] abbreviates: stimulated with 0.04 ml of LPS, peptide 10 μg/ml.
[11] abbreviates: stimulated with 0.2 ml of LPS, peptide 0.4 μg/ml.
[12] abbreviates: stimulated with 0.2 ml of LPS, peptide 2 μg/ml.
The mark [13] stands for this setting: stimulated with 0.2 ml of LPS, peptide 10 μg/ml.

Where a SMILES comes first, the peptide text is derived from it. [ ]: non-standard residue; d: D form. Phe(2-Me) = Cc1ccccc1C[C@H](N)C(=O)O

Regarding `Nc1nc2c(ncn2COCCO)c(=O)[nH]1` [Acyclovir], in series [1] (setting [7]), the “Number of Dead animals” value was 4 and the “Number of Survived animals” value stood at 11. The molecule also yielded a Mortality in series [1] (mice, n = 15, followed 18 days) of 26.7%. Further, in series [1] (versus virus control group), the “Increase in ALS” value worked out at 2.5.
Turning to `CC[C@H](C)[C@H](N)C(=O)N[C@@H](CC(C)C)C(=O)N1CCC[C@H]1C(=O)N[C@H](Cc1ccccc1)C(=O)N[C@@H](CCCCN)C(=O)N[C@H](Cc1ccccc1)C(=O)N1CCC[C@H]1C(=O)N[C@H](Cc1ccccc1)C(=O)N[C@H](Cc1ccccc1)C(=O)N1CCC[C@H]1C(=O)N[C@H](Cc1ccccc1)C(=O)N[C@@H](CCCNC(=N)N)C(=O)N[C@@H](CCCNC(=N)N)C(N)=O` [Peptide 6, H-Ile-Leu-Pro-D-Phe-Lys-D-Phe-Pro-D-Phe-D-Phe-Pro-D-Phe-Arg-Arg-NH2] (H-ILP[dF]K[dF]P[dF][dF]P[dF]RR-NH2), the “dose at which hemolysis was not induced” value in series [2] is “exceeding 200 μg/ml”. Further, in series [3] (2-10 μg/ml dose range), the “effect on spontaneous proliferation of splenocytes (in words)” value is reported as “statistically significant enhancement of the spontaneous proliferation of splenocytes”. Besides, the “spontaneous proliferation of spleen cells (captured 3H-thymidin)” value in series [3] (peptide 0.08 μg/ml) came out at 1530 ± 510 imp/min; in series [3] (peptide 0.4 μg/ml), 1615 ± 248 imp/min; in series [3] (peptide 2 μg/ml) it was 1854 ± 236 imp/min; in series [3] (peptide 10 μg/ml), 3279 ± 177 imp/min. For the same molecule, in series [4], the “effect on splenocyte proliferation stimulated with lipopolysaccharide (in words)” value is on record as “inhibited the LPS effect”. Besides, the “spontaneous proliferation of thymus cells (captured 3H-thymidin)” value stood at 306 ± 103 imp/min in series [5] (peptide 0.08 μg/ml), 246 ± 48 imp/min in series [5] (peptide 0.4 μg/ml), 298 ± 63 imp/min in series [5] (peptide 2 μg/ml) and 736 ± 161 imp/min in series [5] (peptide 10 μg/ml). The “effect on NO production stimulated by LPS (in words)” value in series [6] (10-0.4 μg/ml doses) is on record as “inhibited the NO production”. Also, the NO production inhibition worked out at 0% in series [6] (setting [8]); 1% in series [6] (setting [9]); 8% in series [6] (setting [10]); 1% in series [6] (setting [11]); 10% in series [6] (setting [12]); 7% in series [6] (setting [13]).
For the molecule `CC[C@H](C)[C@H](N)C(=O)N[C@@H](CC(C)C)C(=O)N1CCC[C@H]1C(=O)N[C@@H](Cc1ccccc1C)C(=O)N[C@@H](CCCCN)C(=O)N[C@@H](Cc1ccccc1C)C(=O)N1CCC[C@H]1C(=O)N[C@@H](Cc1ccccc1C)C(=O)N[C@@H](Cc1ccccc1C)C(=O)N1CCC[C@H]1C(=O)N[C@@H](Cc1ccccc1C)C(=O)N[C@@H](CCCNC(=N)N)C(=O)N[C@@H](CCCNC(=N)N)C(N)=O` [Peptide 11, H-Ile-Leu-Pro-(2-Me)Phe-Lys-(2-Me)Phe-Pro-(2-Me)Phe-(2-Me)Phe-Pro-(2-Me) Phe-Arg-Arg-NH2] (H-ILP[Phe(2-Me)]K[Phe(2-Me)]P[Phe(2-Me)][Phe(2-Me)]P[Phe(2-Me)]RR-NH2), in series [2], the “dose at which hemolysis was not induced” value is listed as “exceeding 200 μg/ml”.
Regarding Polymixin B [PMB], the “spontaneous proliferation of spleen cells (captured 3H-thymidin)” value in series [3] (peptide 0.08 μg/ml) was 1488 ± 497 imp/min; in series [3] (peptide 0.4 μg/ml) it was 1548 ± 140 imp/min; in series [3] (peptide 2 μg/ml) it was 2051 ± 167 imp/min; in series [3] (peptide 10 μg/ml), 2051 ± 456 imp/min. In addition, the “spontaneous proliferation of thymus cells (captured 3H-thymidin)” value was found to be 255 ± 68 imp/min in series [5] (peptide 0.08 μg/ml), 197 ± 10 imp/min in series [5] (peptide 0.4 μg/ml), 197 ± 12 imp/min in series [5] (peptide 2 μg/ml) and 201 ± 66 imp/min in series [5] (peptide 10 μg/ml). Moreover, the NO production inhibition is recorded as 44% in series [6] (setting [8]); 85% in series [6] (setting [9]); 94% in series [6] (setting [10]); 11% in series [6] (setting [11]); 62% in series [6] (setting [12]); 98% in series [6] (setting [13]).
